Here are results for 25 compounds from patent US8921358B2, “Apoptosis signal-regulating kinase 1 inhibitors” (Takeda Pharmaceutical Company Limited, priority 2008, dated 2014).

pIC50: −log10 of the molar value. Where a name gives a salt, the structure may show the parent alone. Where only a bound is given, the exact number is not on record here.

This experiment addresses T1, human ASK1 (Homo sapiens, UniProt Q99683).
T1 construct: a 2.2 kb DNA fragment containing an ASK1 gene was recovered from the gel; made in house; host or cells: Sf-21 insect cells, recombinant baculovirus (pFASTBAC1, Bac-to-Bac)
T1 sequence (Q99683 649-1374 limits assumed): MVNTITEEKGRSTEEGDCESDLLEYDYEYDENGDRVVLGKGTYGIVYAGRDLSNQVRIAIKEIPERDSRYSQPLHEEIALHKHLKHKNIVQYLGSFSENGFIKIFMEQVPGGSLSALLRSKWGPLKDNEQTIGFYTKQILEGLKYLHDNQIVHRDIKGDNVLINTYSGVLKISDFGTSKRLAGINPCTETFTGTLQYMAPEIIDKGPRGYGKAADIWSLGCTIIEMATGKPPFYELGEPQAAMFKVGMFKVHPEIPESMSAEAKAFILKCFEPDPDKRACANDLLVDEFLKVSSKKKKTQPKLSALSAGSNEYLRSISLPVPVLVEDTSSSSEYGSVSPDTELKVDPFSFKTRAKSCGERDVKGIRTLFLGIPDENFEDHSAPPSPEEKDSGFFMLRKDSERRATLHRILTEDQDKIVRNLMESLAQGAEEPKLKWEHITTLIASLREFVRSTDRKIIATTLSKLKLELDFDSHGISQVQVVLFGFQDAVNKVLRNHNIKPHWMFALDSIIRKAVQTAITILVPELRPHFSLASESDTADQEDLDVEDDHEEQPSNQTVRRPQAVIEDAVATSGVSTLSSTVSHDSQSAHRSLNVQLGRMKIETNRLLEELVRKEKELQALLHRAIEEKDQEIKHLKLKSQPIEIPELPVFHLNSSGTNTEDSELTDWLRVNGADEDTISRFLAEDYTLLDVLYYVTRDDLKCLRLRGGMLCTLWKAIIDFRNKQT
Kind of experiment: Scintillation assay measuring inhibition of ASK1 phosphorylation of myelin basic protein. It is filed as biochemical. The conditions noted are these: active ASK1 protein 30 ng, myelin basic protein 1 μg, [γ-32P]ATP, room temperature 30 min; values given as ranges; read-out: Enzyme Activity IC50. As to the method:
Cloning of cDNA encoding human ASK1 was conducted by PCR using primers, 5′-[…] AGAGAAGGGGA-3′ (SEQ ID NO: 1) and 5′-[…]-3′ (SEQ ID NO: 2), from human heart cDNA library (Becton, Dickinson and Company). The PCR product was subjected to agarose gel (1%) electrophoresis, a 2.2 kb DNA fragment containing an ASK1 gene was recovered from the gel, and then digested with restriction enzymes, NotI and SalI, and inserted into a plasmid pFASTBAC1 (Invitrogen) to prepare a plasmid pFB-ASK1. The insert was verified by sequencing. Recombinant baculovirus was prepared according to the procedure of the Bac-to-Bac baculovirus expression system (Invitrogen).
Sf-21 cells were seeded to achieve 1×10^6 cells/mL in 100 mL of Sf-900 II SFM medium (Invitrogen) which contains 10% fetal calf serum and then cultured at 27° C. for 24 hrs. To express ASK1 in cells, 0.15 mL of the recombinant baculovirus virus stock was added to cells, and the then cultured for 60 hrs. The cells were separated from the culture solution by centrifugation at 3000 rpm for 10 min and washed once with PBS. The cells were suspended in 10 mL of lysis buffer (25 mM HEPES (pH 7.5), 1% Triton X, 130 mM NaCl, 1 mM EDTA, 1 mM DTT, 25 mM β-glycerophosphate, Protease inhibitor complete (Roche), 1 mM sodium orthovanadate) and ruptured by four times of treatment with a homogenizer (POLYTRON) at 20000 rpm for 30 seconds. Active ASK1 protein was purified from a supernatant obtained by centrifugal separation at 40000 rpm for 45 min using anti-FLAG M2 Affinity Gel (Sigma).
The test compounds (2.5 μl) dissolved in DMSO were added to wells containing 37.5 μl of the reaction solution (25 mM HEPES (pH 7.5), 10 mM magnesium acetate, 1 mM DTT) including 30 ng of active ASK1 protein and 1 μg of myelin basic protein (Wako), and incubated at room temperature for 5 min. To start the reaction, 10 μL of ATP solution (2.5 μM ATP, 0.1 μCi [γ-^32P]ATP) was added to wells. After incubating at room temperature for 30 min, the reaction was terminated by adding 50 μl of 20% TCA solution. The reaction solution was incubated at 4° C. for 30 min and an acid-insoluble fraction was transferred onto a GF/C filter (Packard) with Cell Harvester (Packard), and washed with 250 mM phosphoric acid. After drying at 45° C. for 60 min., 40 μL of Microscint 0 (Packard) was added and the radioactivity was measured with TopCount (Packard). The concentrations (IC50 value) of the test compounds necessary for 50% inhibition of kinase activity were calculated by PRISM 3.0 (Graphpad Software).
The enzyme activities of selected compounds of the present invention against ASK1 were determined using the assay disclosed in Example A and B. The resulted pIC50 values are reported in Table 1.
Turning to `CC(C)(O)c1ccc(C(=O)Nc2cc(N3CCC[C@H]3C(N)=O)n3nccc3n2)cc1` [Compound 92, (S)-1-(5-(4-(2-hydroxypropan-2-yl)benzamido)pyrazolo[1,5-a]pyrimidin-7-yl)pyrrolidine-2-carboxamide], the pIC50 is under 6.00.
As for `CC(C)(O)c1ccc(C(=O)Nc2cc(N3CCC[C@@H](C(N)=O)C3)n3nccc3n2)cc1` [Compound 83, (R)-1-(5-(4-(2-hydroxypropan-2-yl)benzamido)pyrazolo[1,5-a]pyrimidin-7-yl)piperidine-3-carboxamide], the figure is over 7.00; as for `CC(C)(C)c1ccc(C(=O)Nc2cc(N3CCOCC3)n3nccc3n2)cc1` [Compound 65, 4-tert-butyl-N-(7-morpholinopyrazolo[1,5-a]pyrimidin-5-yl)benzamide, trifluoroacetate salt], over 7.00; as for `CC(C)(C)c1ccc(C(=O)Nc2cc(-c3cccc(CCCO)c3)n3nccc3n2)cc1` [Compound 11, 4-tert-Butyl-N-(7-(3-(3-hydroxypropyl)phenyl)pyrazolo[1,5-a]pyrimidin-5-yl)benzamide], over 7.00.
As for `COc1ccc(-c2cc(NC(=O)c3ccc(C(C)(C)C)cc3)nc3ccnn23)cc1` [Compound 9, 4-tert-Butyl-N-(7-(4-methoxyphenyl)pyrazolo[1,5-a]pyrimidin-5-yl)benzamide], the figure is over 7.00; as for `COc1cccc(-c2cc(NC(=O)c3ccc(C(C)(C)C)cc3)nc3ccnn23)c1` [Compound 15, 4-tert-Butyl-N-(7-(3-methoxyphenyl)pyrazolo[1,5-a]pyrimidin-5-yl)benzamide], over 7.00; as for `CC(C)(C)c1ccc(C(=O)Nc2cc(-c3ccc(S(C)(=O)=O)cc3)n3nccc3n2)cc1` [Compound 8, 4-tert-butyl-N-(7-(4-(methylsulfonyl)phenyl)pyrazolo[1,5-a]pyrimidin-5-yl)benzamide], under 6.00.
For `CC(C)(O)c1ccc(C(=O)Nc2cc(N3CCC[C@@H]3CO)n3nccc3n2)cc1` [Compound 68, (R)—N-(7-(2-(hydroxymethyl)pyrrolidin-1-yl)pyrazolo[1,5-a]pyrimidin-5-yl)-4-(2-hydroxypropan-2-yl)benzamide], the pIC50 was 6.00 to 7.00.
In the case of `CC(C)(O)c1ccc(C(=O)Nc2cc(-c3ccc(C(N)=O)cc3)n3nccc3n2)cc1` [Compound 22, N-(7-(4-carbamoylphenyl)pyrazolo[1,5-a]pyrimidin-5-yl)-4-(2-hydroxypropan-2-yl)benzamide], the pIC50 is 6.00 to 7.00.
Consider `Cc1cc2nc(NC(=O)c3ccc(C(C)(C)C)cc3)cc(-c3cccc(CO)c3)n2n1` [Compound 1, 4-tert-butyl-N-(7-(3-(hydroxymethyl)phenyl)-2-methylpyrazolo[1,5-a]pyrimidin-5-yl)benzamide], for which the pIC50 was over 7.00.
For the compound `CC(C)(C)c1ccc(C(=O)Nc2cc(-c3ccc(C(N)=O)cc3)n3nccc3n2)cc1` [Compound 42, 4-tert-butyl-N-(7-(4-carbamoylphenyl)pyrazolo[1,5-a]pyrimidin-5-yl)benzamide], the pIC50 was over 7.00.
Turning to `Cc1ccc(-c2cc(N)nc3ccnn23)cc1` [Compound 174, 7-p-tolylpyrazolo[1,5-a]pyrimidin-5-amine], the pIC50 was under 6.00.
As for `CC(C)(O)c1ccc(C(=O)Nc2cc(N3CCNC(=O)CC3)n3nccc3n2)cc1` [Compound 93, 4-(2-hydroxypropan-2-yl)-N-(7-(5-oxo-1,4-diazepan-1-yl)pyrazolo[1,5-a]pyrimidin-5-yl)benzamide], the pIC50 is 6.00 to 7.00.
In the case of `Cc1cc2nc(NC(=O)c3ccc(C(C)(C)O)cc3)cc(N3CC[C@@H](O)C3)n2n1` [Compound 203, (R)-4-(2-hydroxypropan-2-yl)-N-(7-(3-hydroxypyrrolidin-1-yl)-2-methylpyrazolo[1,5-a]pyrimidin-5-yl)benzamide], the pIC50 was over 7.00.
Consider `CC(C)(O)c1ccc(C(=O)Nc2cc(N3CCc4nc[nH]c(=O)c4C3)n3nccc3n2)cc1` [Compound 89, 4-(2-hydroxypropan-2-yl)-N-(7-(4-oxo-3,4,7,8-tetrahydropyrido[4,3-d]pyrimidin-6(5H)-yl)pyrazolo[1,5-a]pyrimidin-5-yl)benzamide], for which the pIC50 is over 7.00.
For the compound `CC(C)(C)c1ccc(C(=O)Nc2cc(N3CCC[C@H](O)C3)n3nccc3n2)cc1` [Compound 75, (S)-4-tert-butyl-N-(7-(3-hydroxypiperidin-1-yl)pyrazolo[1,5-a]pyrimidin-5-yl)benzamide], the pIC50 was 6.00 to 7.00.
With `Cc1ccc(-c2cc(NC(=O)c3ccc(C(C)(C)O)cc3)nc3ccnn23)cc1` [Compound 20, 4-(2-Hydroxypropan-2-yl)-N-(7-p-tolylpyrazolo[1,5-a]pyrimidin-5-yl)benzamide], the pIC50 was over 7.00.
Turning to `CC(C)(O)c1ccc(C(=O)Nc2cc(N3CCCC3)n3nccc3n2)cc1` [Compound 87, 4-(2-hydroxypropan-2-yl)-N-(7-(pyrrolidin-1-yl)pyrazolo[1,5-a]pyrimidin-5-yl)benzamide], the pIC50 was over 7.00.
In the case of `Cc1cc2nc(NC(=O)c3ccc(C(C)(C)C)cc3)cc(-c3cccc(CCCO)c3)n2n1` [Compound 3, 4-(tert-butyl)-N-(7-(3-(3-hydroxypropyl)phenyl)-2-methylpyrazolo[1,5-a]pyrimidin-5-yl)benzamide], the pIC50 was over 7.00.
For `CC(=O)Nc1ccc(-c2cc(NC(=O)c3ccc(C(C)(C)C)cc3)nc3ccnn23)cn1` [Compound 14, N-(7-(6-Acetamidopyridin-3-yl)pyrazolo[1,5-a]pyrimidin-5-yl)-4-tert-butylbenzamide], the pIC50 was 6.00 to 7.00.
Regarding `CC(C)(O)c1ccc(C(=O)Nc2cc(N3CCC[C@H]3CO)n3nccc3n2)cc1` [Compound 67, (S)—N-(7-(2-(hydroxymethyl)pyrrolidin-1-yl)pyrazolo[1,5-a]pyrimidin-5-yl)-4-(2-hydroxypropan-2-yl)benzamide], the pIC50 was 6.00 to 7.00.
For `Cc1cc2nc(NC(=O)c3ccc(C(C)(C)C)cc3)cc(-c3ccc(F)c(CO)c3)n2n1` [Compound 4, 4-tert-butyl-N-(7-(4-fluoro-3-(hydroxymethyl)phenyl)-2-methylpyrazolo[1,5-a]pyrimidin-5-yl)benzamide], the pIC50 is over 7.00.
As to `Cc1cc2nc(NC(=O)[C@@H]3C[C@H]3c3ccc(F)cc3)cc(-c3ccccc3)n2n1` (racemic) [Compound 359, trans-2-(4-Fluorophenyl)-N-(2-methyl-7-phenylpyrazolo[1,5-a]pyrimidin-5-yl)cyclopropanecarboxamide], the pIC50 was over 7.00.
Consider `Nc1cc(-c2cccs2)n2nccc2n1` [Compound 175, 7-(thiophen-2-yl) pyrazolo[1,5-a]pyrimidin-5-amine], for which the pIC50 is under 6.00.
As for `CC(C)(C)c1ccc(C(=O)Nc2cc(NC3CC3)n3nccc3n2)cc1` [Compound 128, 4-tert-butyl-N-[7-(cyclopropylamino)pyrazolo[1,5-a]pyrimidin-5-yl]benzamide], the figure is over 7.00.

The term pIC50 denotes the negative decadic logarithm of the IC50, by convention in mol/L.
